The conditions of data set [1]: background knowledge; cited from earlier work.
Data set [2] concerns triton-WR 1339 hyperlipemia (serum lipids). Briefly: Acute triton test (1 × prophylactic application) on rats. The class given is in vivo. Here is the method: (a) Prophylactic application
The n-oleyl derivative (i.e., n-oleyl cephalin) was orally administered to the test animals. […] Forty-eight hours after the triton application, serum was analyzed for lipids and compared with a control group.

For data set [3] the test system is unchanged. Briefly: Acute triton test (1 × therapeutic application) on rats. The data set is classed as in vivo. Particulars: for minimal effective dose: Rattus norvegicus, po, 48 h. The protocol:
(b) Therapeutic application
One hour later the n-oleyl cephalin was orally administered. Forty-eight hours after the triton is administered, serum is analyzed for lipids and evaluated against a control group.

In the next data set the test system is serum lipids. Briefly: Biochemical screening (unstressed rat). The data set is classed as in vivo. The note with it: oral, serum after 4 h. Here is the method: (c) Biochemical screening
In accordance with the procedures set forth in Fletcher, M. J., Clin. Chim. […] Four hours later serum was analyzed for lipids and evaluated against a control group.

The next data set is described as follows: Acute toxicity, mouse. The note with it: in vivo. The class given is in vivo.
For a further data set, the system named is mouse. Briefly: Acute toxicity, mouse. The data set is classed as in vivo.
A further data set is described as follows: Acute toxicity, rat. The note with it: in vivo. The data set is classed as in vivo.
The next data set relates to rat. Briefly: Acute toxicity, rat. The data set is classed as in vivo.
The mark [4] stands for this setting: clofibrate, prophylactic, whole test, no single lipid named.
Setting [5] is: lowest effective dose, oral, prophylactic.
Where [6] appears, read: oral, 24 h before triton, serum 48 h after triton.
Where [7] appears, read: lowest dose with drop, therapeutic.
The mark [8] stands for this setting: oral, 1 h after triton, serum 48 h after triton.

These results are taken from patent US4254115A, “Phospholipid derivative with an antilipemic and antiarteriosclerotic effect” (A. Nattermann & Cie. GmbH, priority 1979, dated 1981).

One may read the LD50 as the dose expected to kill half of the subjects tested. Low values mean greater toxicity, high ones lower toxicity.

Like-named read-outs stand apart in the source and are kept apart here. Where only a bound is given, the exact number is not on record here.

For the molecule `CCCCC/C=C\C/C=C\CCCCCCCC(=O)NC1CCCCC1` [cyclohexyllinolamide], in data set [1], the “antiarteriosclerotic, antilipemic, metabolic or lipid-reducing effect in words” value was “lipid-reducing effect”.

As to `CCOC(=O)C(C)(C)Oc1ccc(Cl)cc1` [Clofibrate, reference compound], the “Dosing ... very effective” value in data set [2] (setting [4]) was 500 mg/kg BW. Besides, in data set [2] (setting [4]), the “Dosings up to ... ineffective” value is on record as “up to 250 mg/kg BW”. In addition, the minimal effective dose in data set [3] (lowest dose with drop, therapeutic, read-out: Phospholipids Drop from) stood at 500 mg/kg; in data set [3] (lowest dose with drop, therapeutic, read-out: Total lipids Drop from), 250 mg/kg; in data set [3] (lowest dose with drop, therapeutic, read-out: Triglycerides Drop from) it was 250 mg/kg; in the data set with serum lipids (read-out: Total cholesterol Drop from), 50 mg/kg; with serum lipids (read-out: Total lipids Drop from), 100 mg/kg; in the data set on serum lipids (read-out: Triglycerides Drop from) it was 50 mg/kg. The “Free cholesterol No effect up to” value in data set [3] (therapeutic) was no more than 500 mg/kg BW. In addition, in data set [3] (therapeutic), the “Total cholesterol No effect up to” value is recorded as no more than 500 mg/kg BW. Also, the LD50 in the data set “Acute toxicity, mouse” amounted to 2960 mg/kg; in “Acute toxicity, rat” it was 1100 mg/kg. Also, the LD0 mouse in the data set on mouse is reported as ~ 1470 mg/kg BW. For the same molecule, the LD0 rat in the data set with rat is ~ 681 mg/kg BW.

Consider “n-oleylphosphatidylethanolamine [N-oleylcephalin]”, for which, in data set [2] (setting [5]), the “Free cholesterol Effect from” value turned out to be 0.10 mg/kg BW and the “Total cholesterol Effect from” value came to 0.01 mg/kg BW. In data set [2] (setting [6]), the “Phospholipids E.D.50” value is 0.62 mg/kg BW, the “Total lipids E.D.50” value worked out at 0.29 mg/kg BW and the “Triglycerides E.D.50” value came out at 0.18 mg/kg BW. In data set [3] (setting [7]), the “Free cholesterol Drop from” value is given as 0.10 mg/kg BW and the “Phospholipids Drop from” value came to 0.10 mg/kg BW. For the same molecule, in data set [3] (setting [8]), the “Total cholesterol E.D.50” value is given as 278.86 mg/kg BW and the “Total lipids E.D.50” value is on record as 8.49 mg/kg BW. In addition, in the data set on serum lipids, the “Free cholesterol Drop from” value was found to be 50 mg/kg BW, the “Phospholipids Drop from” value was determined as 50 mg/kg BW, the “Total cholesterol Drop from” value was 50 mg/kg BW and the “Total lipids Drop from” value is 50 mg/kg BW. Besides, the “Triglycerides Drop from” value with serum lipids came out at 50 mg/kg BW. Moreover, in the data set with mouse, the LD0 mouse is listed as greater than 4640 mg/kg BW and the LD50 mouse is recorded as greater than 4640 mg/kg BW. In the data set on rat, this molecule registered an LD0 rat greater than 5000 mg/kg BW and an LD50 rat greater than 5000 mg/kg BW.
